In patent publication US20120100229A1, “Treatment and Prevention of White Matter Injury with KATP Channel Activators” (Yale University, priority 2009, published 2012):

How the values were obtained:
pre-oligodendrocytes = experiment: Pre-oligodendrocyte proliferation, CyQUANT NF Cell Proliferation assay; assay type: cell-based, rat; conditions: for IC50: exposure 72-96 h, 1 nM to 100 μM, cellular DNA content fluorescence
Experimental: Purified oligodendrocyte progenitor cell cultures were prepared as described (Othman et al., 2003, Glia 44:166-172). In brief, primary rat mixed glial cell cultures were isolated from whole brains of postnatal day (P) 1 rats, dissociated into single cells, and cultured into poly-D-lysine (PDL, Sigma-Aldrich, St. Louis, Mo.) coated T75 tissue culture flasks. Plating medium consisted of Dulbecco's modified Eagle's medium (DMEM, Invitrogen, Carlsbad, Calif.) supplemented with 10% fetal bovine serum (FBS; InVitrogen, Carlsbad, Calif.), 2 mM L-glutamine, […]. Tissue cultures were maintained at 37° C. in a humidified 5% CO2 incubator, and medium was exchanged every 3 days. Once confluent (after 7-9 days), microglia were separated by mechanical shaking of flasks on a rotary shaker for 60 min at 200 rpm and removed. After addition of fresh medium, the remaining cells were allowed to recover overnight before repeating the mechanical shaking for an additional 16 h at 200 rpm to isolate oligodendrocyte progenitor cells. To ensure purity of oligodendrocyte progenitor cell cultures, the isolated cells were transferred to a tissue culture dish, from which the loosely attached oligodendrocyte progenitor cells were detached by gentle shaking after 60 min, leaving behind attached microglia and astrocytes. Oligodendrocyte progenitor cells were plated onto PDL coated 96 well plates using an automated dispenser and allowed to adhere to the plates over the next 1-2 days. This procedure yielded 98% A2B5-positive (OPC marker), and 2% MBP-positive (mature OL marker) cells. GFAP-positive (astrocyte marker) or O22A-positive (microglia marker) cells could not be detected in cultures prepared in this manner.
Cells were exposed to various KATP channel stimulators, with concentrations of compounds ranging from 1 nM to 100 μM, for 72-96 h. Pre-oligodendrocytes were cultured in 384-well plates, at a concentration of 10,000 cells per well. Cultures were washed two times with DMEM to remove any residual serum and then the respective solutions of KATP channel activators were added daily in an incubation buffer of DMEM with 0.5% FBS+10 μg/ml biotin and N2 supplement. Cells were then placed at 37° C. in a humidified atmosphere containing 5% CO2. All concentrations were tested in triplicate and each study was repeated twice.
To evaluate cell proliferation in response to KATP channel stimulators, the CyQUANT® NF Cell Proliferation assay (Invitrogen, Carlsbad, Calif.) was used according to the manufacturer's instructions. This assay measured cellular DNA content as a direct index of cell proliferation. Since cellular DNA content is highly proportional to cell number, this is a very accurate way to assess cell proliferation specifically. At the end of drug exposure, medium was removed and a stock solution of the green-fluorescent CyQUANT GR dye (prepared according to manufacturer's instructions) was added. […] Fluorescence was measured using an Envision Multilabel reader (Perkin-Elmer; Excitation: 480 nm, Emission: 530 nm).

C57BL/6 mice = experiment: Hypoxia-induced periventricular white matter injury in neonatal mice; assay type: in vivo, mouse; conditions: for myelin basic protein-labeling (myelination): vs vehicle
Experimental: The effect of diazoxide in hypoxia-induced periventricular white matter injury was assessed. C57BL/6 mice were reared in […] 10% O2 from P3 to P12. Pups were treated with daily injection of either diazoxide or vehicle, with at least eight animals in each treatment group. Mice were weighed every two days. At P12, brains were removed. Ventricle size and myelin basic protein (MBP) labeling were assessed. C57BL/6 mice were exposed to low or normal oxygen conditions from P3-P12 (Turner et al., 2003, Proc. Natl. Acad. Sci. USA 100:11718-11722). In brief, litters of pups (P3) were placed with the dam in a Plexiglas chamber, in which oxygen levels were maintained at 9.5±1.0%, O2 levels were continuously monitored using a Cameron Instrument (Ontario, Canada) dual channel oxygen monitor attached to O2 electrodes placed at each end of the chamber. Control animals were kept in room air (˜22%) outside the Plexiglas chamber. Animals were removed from the chamber daily for less than 15 min to allow for diazoxide (10 mg/kg i.p.) or vehicle administration, as well as observation of weight gain. Mice were euthanized at P12, brains were harvested and shock frozen in ice cold (−20° C.) 2-methylbutane and stored at −80° C. until assessment of ventricular size or MBP immunocytochemistry (see below). At least eight animals were studied in each treatment group. Ventricle size was determined as reported (Turner et al., 2003, Proc. Natl. Acad. Sci. USA 100:11718-11722). Animals were weighed, anesthetized, and decapitated. Brains were shock frozen in ice cold (−20° C.) 2-methylbutane and stored at −80° C. Coronal sections spanning the brain were cut in a cryostat at a thickness of 16 μm in a Zeiss cryostat. Sections were mounted onto glass slides and stained with Phoenix Blue (Thermo Scientific, Waltham, Mass.). […] Ventricular sizes were quantified using Sigma Scan Pro Image Analysis Version 5.0.0 (SPSS Inc., Chicago, Ill.). The ventricular area, outlined by the Phoenix Blue staining, was measured and numerically integrated across the thickness of the slice. […]

CC1=NS(=O)(=O)c2cc(Cl)ccc2N1 [diazoxide, 7-chloro-3-methyl-4H-1,2,4-benzothiadiazine 1,1-dioxide]
EC50 (pre-oligodendrocytes; Rattus norvegicus, quoted in the cell toxicity study, read-out: observed EC50 value (pre-oligodendrocyte proliferation)): 10 nM | myelin basic protein-labeling (myelination) (C57BL/6 mice; chronic hypoxia P3-P12, 10 mg/kg i.p. daily): markedly improved | ventricle size (ventriculomegaly) (C57BL/6 mice; hypoxia 10% O2 P3-P12, 10 mg/kg i.p. daily, p<0.05 ANOVA vs hypoxia-vehicle): not enlarged | myelin basic protein-labeling (myelination) (C57BL/6 mice; room air, 10 mg/kg i.p. daily): More myelin basic protein-labeling

CC1(C)Oc2ccc(C#N)cc2[C@@H](N2CCCC2=O)[C@@H]1O [levcromakalim, (3S,4R)-3-hydroxy-2,2-dimethyl-4-(2-oxopyrrolidin-1-yl)chroman-6-carbonitrile]
IC50 (pre-oligodendrocytes; Rattus norvegicus): 2500 nM

CCC(C)(C)/N=C(/NC#N)Nc1cccnc1 [P 1075, (E)-1-cyano-2-tert-pentyl-3-(pyridin-3-yl)guanidine]
IC50 (pre-oligodendrocytes; Rattus norvegicus): 100 nM

CC(N/C(=N\C#N)Nc1ccncc1)C(C)(C)C (stereo not drawn) [pinacidil, (E)-1-(3,3-dimethylbutan-2-yl)-2-cyano-3-(pyridin-4-yl)guanidine]
IC50 (pre-oligodendrocytes; Rattus norvegicus): 10000 nM

CC(O)(C(=O)Nc1ccc(S(=O)(=O)c2ccccc2)cc1)C(F)(F)F (stereo not drawn) [ZM26600, 3,3,3-trifluoro-2-hydroxy-2-methyl-N-(4-(phenylsulfonyl)phenyl) propanamide]
IC50 (pre-oligodendrocytes): 2500 nM

CC(=O)N(O)[C@@H]1c2cc(C#N)ccc2OC(C)(C)[C@H]1O [Y26763, N-((3S,4R)-6-cyano-3-hydroxy-2,2-dimethylchroman-4-yl)-N-hydroxyacetamide]
IC50 (pre-oligodendrocytes; Rattus norvegicus): 200 nM
